The values below come from publication PMC7320180, “Hydroxamic acid derivatives as HDAC1, HDAC6 and HDAC8 inhibitors with antiproliferative activity in cancer cell lines” (Scientific Reports, 2020).

Common to all, as to format: cell-based
One experiment deals with HepG2 cells. As to the kind of experiment: MTT cytotoxicity test, HepG2. Conditions: Homo sapiens; for inhibition at 50 µM: HepG2; for IC50: HepG2, 72 h. The protocol:
(§1) All compounds were evaluated in triplicate using six points, 1/3 dilutions, with the highest concentration of 50 µM. The triplicate measurements were placed in three different 96-plates, and 1% DMSO was used as a negative control.
(§2) The first sets of […] (GH38, GH18, GH27, FH38, FH18, […] and FH37) were evaluated in different cancer cell lines: HepG2, MCF-7, SH-SY5Y, MIA PaCa-2, and […]. Furthermore, the second series of eight compounds were evaluated using seven cell lines: SH-SY5Y which is a neuroblastoma cell line; HepG2, a hepatocellular carcinoma cell line; MIA PaCa-2, a human pancreatic carcinoma cell line; MCF-7, a breast cancer cell line; HCC1954, a basal-Her2+ breast carcinoma cell line; RCC4-VA, a renal carcinoma cell line with a VHL mutation; and RCC4-VHL, a renal carcinoma cell without the VHL mutation (wild type). The cells used were seeded in 96-well plates and left for 24 h (5% CO2 and 90% humidity, 50000 cells/well) and incubated for 3 days to study the cytotoxicity.
(In general: Tetrazolium assays rely on reduction of a dye to a coloured formazan, in cell work by metabolically active cells.)

The test system of a further experiment is MIA PaCa-2 cells. As to the kind of experiment: MTT cytotoxicity test, MIA PaCa-2. Conditions: Homo sapiens; for inhibition at 50 µM: MIA PaCa-2; for IC50: MIA PaCa-2, 72 h. As to the method: as §1, §2
The test system of another experiment is MCF-7 cells. As to the kind of experiment: MTT cytotoxicity test, MCF-7. The settings on record: Homo sapiens; for inhibition at 50 µM: MCF7; for IC50: MCF7, 72 h. As to the method: as §1, §2
A further experiment concerns RCC4-VHL cells. As to the kind of experiment: MTT cytotoxicity test, RCC4-VHL. Conditions: Homo sapiens, 72 h, 3 days. As to the method:
as §1, §2

A further experiment has as its system RCC4-VA cells. As to the kind of experiment: MTT cytotoxicity test, RCC4-VA. Conditions: 72 h, 3 days. The protocol:
as §1, §2

The next experiment concerns SH-SY5Y cells. As to the kind of experiment: MTT cytotoxicity test, SH-SY5Y. The settings on record: Homo sapiens, 72 h, 3 days. The protocol:
as §1, §2

In a further experiment the test system is HCC1954 cells. As to the kind of experiment: MTT cytotoxicity test, HCC1954. Conditions: Homo sapiens, HCC1954, 72 h, 3 days. The protocol: as §1, §2
Where [1] appears, read: MTT, 3 days, read-out: IC50 (µM) HepG2.
The mark [2] stands for this setting: MTT, 3 days, read-out: IC50 (µM) MIA PaCa-2.
The mark [3] stands for this setting: MTT, 3 days, read-out: IC50 (µM) MCF-7.

Read-outs that look alike come from different tables or passages of the source. Bounds are passed on as bounds.

Consider `Cc1ccc(C(=O)N[C@@H](Cc2ccccc2)C(=O)NO)cc1` [FH18, (S)-N-(1-(hydroxyamino)-1-oxo-3-phenylpropan-2-yl)-4-methylbenzamide], for which the inhibition at 50 µM was found to be 5.52% in the experiment on HepG2 cells, 0.05% in the experiment with MIA PaCa-2 cells and 41.2% in the experiment with MCF-7 cells. Besides, the half-inhibitory concentration (IC50) with HepG2 cells (read-out: IC50 HepG2), in the experiment on MIA PaCa-2 cells (read-out: IC50 MIA PaCa-2) and with MCF-7 cells (read-out: IC50 MCF-7) was over 50 µM in each case.
As to `CCCCc1ccc(C(=O)N[C@@H](Cc2ccccc2)C(=O)NO)cc1` [FH27, (S)-4-butyl-N-(1-(hydroxyamino)-1-oxo-3-phenylpropan-2-yl)benzamide], the inhibition at 50 µM in the experiment on HepG2 cells was 35.4%; in the experiment with MIA PaCa-2 cells it was 2.82%; in the experiment on MCF-7 cells, 37.6%. The IC50 in the experiment on HepG2 cells (read-out: IC50 HepG2), in the experiment on MIA PaCa-2 cells (read-out: IC50 MIA PaCa-2) and with MCF-7 cells (read-out: IC50 MCF-7) was over 50 µM each time.
For the compound `CCCC(CCC)C(=O)N[C@@H](Cc1ccccc1)C(=O)NO` [FH37, (S)-N-(1-(hydroxyamino)-1-oxo-3-phenylpropan-2-yl)-2-propylpentanamide], the values for the inhibition at 50 µM with HepG2 cells, with MIA PaCa-2 cells and in the experiment on MCF-7 cells were 48.6%, 7.47% and 49.1%, respectively. The IC50 with HepG2 cells (read-out: IC50 HepG2), with MIA PaCa-2 cells (read-out: IC50 MIA PaCa-2) and with MCF-7 cells (read-out: IC50 MCF-7) was over 50 µM throughout.
As to `O=C(N[C@@H](Cc1ccccc1)C(=O)NO)c1ccccc1` [FH38, (S)-N-(1-(hydroxyamino)-1-oxo-3-phenylpropan-2-yl)benzamide], the inhibition at 50 µM came to 14.1% in the experiment on HepG2 cells, 0.43% with MIA PaCa-2 cells and 21% in the experiment on MCF-7 cells. Further, the IC50 in the experiment on HepG2 cells (read-out: IC50 HepG2), in the experiment on MIA PaCa-2 cells (read-out: IC50 MIA PaCa-2) and in the experiment on MCF-7 cells (read-out: IC50 MCF-7) was over 50 µM in each case.
Regarding `Cc1ccc(C(=O)NCC(=O)NO)cc1` [GH18, N-(2-(hydroxyamino)-2-oxoethyl)-4-methyl benzamide], the figures for the inhibition at 50 µM with HepG2 cells, in the experiment with MIA PaCa-2 cells and in the experiment with MCF-7 cells were 3.08%, 4.44% and 17.2%, respectively. In addition, the IC50 with HepG2 cells (read-out: IC50 HepG2), in the experiment with MIA PaCa-2 cells (read-out: IC50 MIA PaCa-2) and in the experiment on MCF-7 cells (read-out: IC50 MCF-7) was over 50 µM each time.
As to `CCCCc1ccc(C(=O)NCC(=O)NO)cc1` [GH27, 4-butyl-N-(2-(hydroxyamino)-2-oxoethyl)benzamide], the inhibition at 50 µM came to 1.38% in the experiment with HepG2 cells, 10.7% in the experiment with MIA PaCa-2 cells and 40.4% with MCF-7 cells. Also, the IC50 with HepG2 cells (read-out: IC50 HepG2), with MIA PaCa-2 cells (read-out: IC50 MIA PaCa-2) and with MCF-7 cells (read-out: IC50 MCF-7) was over 50 µM each time.
`O=C(CNC(=O)c1ccccc1)NO` [GH38, N-(2-(hydroxyamino)-2-oxoethyl)benzamide]: the inhibition at 50 µM worked out at 1.01% in the experiment with HepG2 cells, 0.18% in the experiment with MIA PaCa-2 cells and 16.1% in the experiment with MCF-7 cells. In addition, the IC50 in the experiment on HepG2 cells (read-out: IC50 HepG2), in the experiment on MIA PaCa-2 cells (read-out: IC50 MIA PaCa-2) and in the experiment on MCF-7 cells (read-out: IC50 MCF-7) was over 50 µM throughout.
Consider `CCCCc1ccc(C(=O)N[C@@H](Cc2ccc(O)cc2)C(=O)NO)cc1` [YSL-99, (S)-4-butyl-N-(1-(hydroxyamino)-3-(4-hydroxyphenyl)-1-oxopropan-2-yl)benzamide], for which the IC50 is 30.9 µM with HepG2 cells (setting [1]); over 50 µM with RCC4-VHL cells; over 50 µM in the experiment on RCC4-VA cells; 36.2 µM in the experiment with SH-SY5Y cells; 42.9 µM in the experiment with HCC1954 cells; over 50 µM in the experiment with MIA PaCa-2 cells (setting [2]). The IC50 with MCF-7 cells (setting [3]) is 8.96 µM.
As for `CCCCc1ccc(C(=O)N[C@H](Cc2ccccc2)C(=O)NO)cc1` [YSL-106, (R)-4-butyl-N-(1-(hydroxyamino)-1-oxo-3-phenylpropan-2-yl)benzamide], the IC50 in the experiment with HepG2 cells (setting [1]) was determined as 11.6 µM; in the experiment on RCC4-VHL cells, 21.1 µM; in the experiment on RCC4-VA cells, 12.9 µM; with SH-SY5Y cells, 18.9 µM; with HCC1954 cells, 26.1 µM; in the experiment with MIA PaCa-2 cells (setting [2]), 21.6 µM. Also, the concentration for half-maximal inhibition (IC50) with MCF-7 cells (setting [3]) was found to be 4.94 µM.
Take `CCCCc1ccc(C(=O)N[C@@H](Cc2ccc3ccccc3c2)C(=O)NO)cc1` [YSL-112, (S)-4-butyl-N-(1-(hydroxyamino)-3-(naphthalen-2-yl)-1-oxopropan-2-yl)benzamide]: the half-maximal inhibitory concentration (IC50) in the experiment on HepG2 cells (setting [1]) is 10.8 µM; with RCC4-VHL cells, 46.5 µM; in the experiment with RCC4-VA cells, 31.9 µM; with SH-SY5Y cells, 21.4 µM; with HCC1954 cells, 7.62 µM; in the experiment with MIA PaCa-2 cells (setting [2]), over 50 µM. Also, the IC50 in the experiment with MCF-7 cells (setting [3]) came to 7.27 µM.
Regarding `CCCCc1ccc(C(=O)N[C@@H](Cc2ccc(F)cc2)C(=O)NO)cc1` [YSL-116, (S)-4-butyl-N-(3-(4-fluorophenyl)-1-(hydroxyamino)-1-oxopropan-2-yl)benzamide], the IC50 in the experiment on HepG2 cells (setting [1]) was 18 µM; in the experiment on RCC4-VHL cells, 44.2 µM; in the experiment on RCC4-VA cells it was 38.9 µM; in the experiment with SH-SY5Y cells, 19.6 µM; in the experiment on HCC1954 cells it was 18 µM; with MIA PaCa-2 cells (setting [2]) it was over 50 µM. Also, the IC50 in the experiment with MCF-7 cells (setting [3]) amounted to 27.9 µM.
Consider `CCCCc1ccc(C(=O)N[C@@H](Cc2ccc(I)cc2)C(=O)NO)cc1` [YSL-121, (S)-4-butyl-N-(1-(hydroxyamino)-3-(4-iodophenyl)-1-oxopropan-2-yl)benzamide], for which the IC50 in the experiment on HepG2 cells (setting [1]) was 41.1 µM; in the experiment on RCC4-VHL cells, over 50 µM; in the experiment on RCC4-VA cells, over 50 µM; in the experiment on SH-SY5Y cells, 1.41 µM; in the experiment on HCC1954 cells, 8.49 µM; in the experiment on MIA PaCa-2 cells (setting [2]) it was over 50 µM. The IC50 with MCF-7 cells (setting [3]) is over 50 µM.
`CCCCc1ccc(C(=O)N[C@@H](Cc2ccc([N+](=O)[O-])cc2)C(=O)NO)cc1` [YSL-125, (S)-4-butyl-N-(1-(hydroxyamino)-3-(4-nitrophenyl)-1-oxopropan-2-yl)benzamide]: the IC50 in the experiment on HepG2 cells (setting [1]) was found to be 15.7 µM; with RCC4-VHL cells, 8.02 µM; in the experiment with RCC4-VA cells, 10.5 µM; in the experiment with SH-SY5Y cells, 6.5 µM; with HCC1954 cells it was 14.8 µM; in the experiment with MIA PaCa-2 cells (setting [2]), 42.5 µM. Further, the IC50 with MCF-7 cells (setting [3]) was 16.6 µM.

One may read the inhibition as how much of the control response was suppressed. Lower therefore signals a response near the control. What is called IC50 is the point on the concentration scale where inhibition reaches its midpoint.
